# Values of other authors, collected in paper PMC11054271, “ABCG2 Transports the Flukicide Nitroxynil and Affects Its Biodistribution and Secretion into Milk” (Pharmaceutics, 2024).
# Tested on: Abcg2
# Set-up: method as in PMID 34062171
# Conditions: mice; cited from earlier work
compound,measurement,value
Cc1c(Cl)cccc1Nc1ccccc1C(=O)O [tolfenamic acid],"Testis accumulation, fold higher in Abcg2−/− compared to wild-type",~3 fold
